ChEMBL document CHEMBL5724914, “Linking interpersonal differences in gut microbiota composition and drug biotransformation activity” (2024)

Assay: (§1) The drug is tested on Z-030 corresponding to mouse gut metagenome with ENA study accession number: PRJEB37062 and ENA sample accession number: ERS12561829 for biotransformation under anaerobic condition. The drug concentrations were measured over 9 timepoints collected between 0 and 24 hours of incubation by liquid-chromatography-coupled mass spectrometry (LC–MS)
Settings: 2 µM
Further: call rule not given here.

Bacterial Biotransformation | Structure (SMILES)
Compound NOT metabolized | CCc1nn(CCCN2CCN(c3cccc(Cl)c3)CC2)c(=O)n1CCOc1ccccc1 [NEFAZODONE]
Compound NOT metabolized | Cc1nc(-c2ccc(OCC(C)C)c(C#N)c2)sc1C(=O)O [FEBUXOSTAT]

Assay: as §1, with “Z-028” for “Z-030”, “ERS12561827” for “ERS12561829”
Settings: 2 µM

Bacterial Biotransformation | Structure (SMILES)
Compound NOT metabolized | CCc1nn(CCCN2CCN(c3cccc(Cl)c3)CC2)c(=O)n1CCOc1ccccc1 [NEFAZODONE]
Compound metabolized | Cc1nc(-c2ccc(OCC(C)C)c(C#N)c2)sc1C(=O)O [FEBUXOSTAT]

Assay: as §1, with “Z-027” for “Z-030”, “to” for “to mouse gut”, “ERS12561826” for “ERS12561829”
Settings: 2 µM

Bacterial Biotransformation | Structure (SMILES)
Compound NOT metabolized | CCc1nn(CCCN2CCN(c3cccc(Cl)c3)CC2)c(=O)n1CCOc1ccccc1 [NEFAZODONE]
Compound metabolized | Cc1nc(-c2ccc(OCC(C)C)c(C#N)c2)sc1C(=O)O [FEBUXOSTAT]

Assay: as §1, with “Z-026” for “Z-030”, “to” for “to mouse gut”, “ERS12561825” for “ERS12561829”
Settings: 2 µM

Bacterial Biotransformation | Structure (SMILES)
Compound NOT metabolized | CCc1nn(CCCN2CCN(c3cccc(Cl)c3)CC2)c(=O)n1CCOc1ccccc1 [NEFAZODONE]
Compound NOT metabolized | Cc1nc(-c2ccc(OCC(C)C)c(C#N)c2)sc1C(=O)O [FEBUXOSTAT]

Assay: as §1, with “Z-024” for “Z-030”, “pig” for “mouse”, “ERS12561823” for “ERS12561829”
Settings: 2 µM

Bacterial Biotransformation | Structure (SMILES)
Compound NOT metabolized | CCc1nn(CCCN2CCN(c3cccc(Cl)c3)CC2)c(=O)n1CCOc1ccccc1 [NEFAZODONE]
Compound metabolized | Cc1nc(-c2ccc(OCC(C)C)c(C#N)c2)sc1C(=O)O [FEBUXOSTAT]

Assay: as §1, with “Z-020” for “Z-030”, “rabbit” for “mouse”, “ERS12561819” for “ERS12561829”
Settings: 2 µM

Bacterial Biotransformation | Structure (SMILES)
Compound NOT metabolized | CCc1nn(CCCN2CCN(c3cccc(Cl)c3)CC2)c(=O)n1CCOc1ccccc1 [NEFAZODONE]
Compound metabolized | Cc1nc(-c2ccc(OCC(C)C)c(C#N)c2)sc1C(=O)O [FEBUXOSTAT]

Assay: as §1, with “Z-010” for “Z-030”, “to” for “to mouse gut”, “ERS12561810” for “ERS12561829”
Settings: 2 µM

Bacterial Biotransformation | Structure (SMILES)
Compound NOT metabolized | CCc1nn(CCCN2CCN(c3cccc(Cl)c3)CC2)c(=O)n1CCOc1ccccc1 [NEFAZODONE]
Compound metabolized | Cc1nc(-c2ccc(OCC(C)C)c(C#N)c2)sc1C(=O)O [FEBUXOSTAT]

Assay: as §1, with “Z-004” for “Z-030”, “to” for “to mouse gut”, “ERS12561804” for “ERS12561829”
Settings: 2 µM

Bacterial Biotransformation | Structure (SMILES)
Compound NOT metabolized | CCc1nn(CCCN2CCN(c3cccc(Cl)c3)CC2)c(=O)n1CCOc1ccccc1 [NEFAZODONE]
Compound NOT metabolized | Cc1nc(-c2ccc(OCC(C)C)c(C#N)c2)sc1C(=O)O [FEBUXOSTAT]

Assay: as §1, with “Z-002” for “Z-030”, “rabbit” for “mouse”, “ERS12561802” for “ERS12561829”
Settings: 2 µM

Bacterial Biotransformation | Structure (SMILES)
Compound NOT metabolized | CCc1nn(CCCN2CCN(c3cccc(Cl)c3)CC2)c(=O)n1CCOc1ccccc1 [NEFAZODONE]
Compound metabolized | Cc1nc(-c2ccc(OCC(C)C)c(C#N)c2)sc1C(=O)O [FEBUXOSTAT]

Assay: as §1, with “Z-001” for “Z-030”, “ERS12561801” for “ERS12561829”
Settings: 2 µM

Bacterial Biotransformation | Structure (SMILES)
Compound NOT metabolized | CCc1nn(CCCN2CCN(c3cccc(Cl)c3)CC2)c(=O)n1CCOc1ccccc1 [NEFAZODONE]
Compound NOT metabolized | Cc1nc(-c2ccc(OCC(C)C)c(C#N)c2)sc1C(=O)O [FEBUXOSTAT]

Assay: as §1, with “WLS-370” for “Z-030”, “human” for “mouse”, “ERS12561793” for “ERS12561829”
Settings: 2 µM

Bacterial Biotransformation | Structure (SMILES)
Compound NOT metabolized | CCc1nn(CCCN2CCN(c3cccc(Cl)c3)CC2)c(=O)n1CCOc1ccccc1 [NEFAZODONE]
Compound metabolized | Cc1nc(-c2ccc(OCC(C)C)c(C#N)c2)sc1C(=O)O [FEBUXOSTAT]

Assay: as §1, with “WLS-170” for “Z-030”, “human” for “mouse”, “ERS12561762” for “ERS12561829”
Settings: 2 µM

Bacterial Biotransformation | Structure (SMILES)
Compound metabolized | CCc1nn(CCCN2CCN(c3cccc(Cl)c3)CC2)c(=O)n1CCOc1ccccc1 [NEFAZODONE]
Compound metabolized | Cc1nc(-c2ccc(OCC(C)C)c(C#N)c2)sc1C(=O)O [FEBUXOSTAT]

Assay: as §1, with “WLS-090” for “Z-030”, “human” for “mouse”, “ERS12561753” for “ERS12561829”
Settings: 2 µM

Bacterial Biotransformation | Structure (SMILES)
Compound metabolized | CCc1nn(CCCN2CCN(c3cccc(Cl)c3)CC2)c(=O)n1CCOc1ccccc1 [NEFAZODONE]
Compound metabolized | Cc1nc(-c2ccc(OCC(C)C)c(C#N)c2)sc1C(=O)O [FEBUXOSTAT]

Settings: human gut metagenome, 24 h, 2 µM

Bacterial Biotransformation | Structure (SMILES)
Compound metabolized | CCc1nn(CCCN2CCN(c3cccc(Cl)c3)CC2)c(=O)n1CCOc1ccccc1 [NEFAZODONE]
Compound metabolized | Cc1nc(-c2ccc(OCC(C)C)c(C#N)c2)sc1C(=O)O [FEBUXOSTAT]

Settings: human gut metagenome, 24 h, 2 µM
Remark: another data set of the same source

Bacterial Biotransformation | Structure (SMILES)
Compound metabolized | CCc1nn(CCCN2CCN(c3cccc(Cl)c3)CC2)c(=O)n1CCOc1ccccc1 [NEFAZODONE]
Compound metabolized | Cc1nc(-c2ccc(OCC(C)C)c(C#N)c2)sc1C(=O)O [FEBUXOSTAT]

Settings: human gut metagenome, 24 h, 2 µM
Remark: another data set of the same source

Bacterial Biotransformation | Structure (SMILES)
Compound NOT metabolized | CCc1nn(CCCN2CCN(c3cccc(Cl)c3)CC2)c(=O)n1CCOc1ccccc1 [NEFAZODONE]
Compound metabolized | Cc1nc(-c2ccc(OCC(C)C)c(C#N)c2)sc1C(=O)O [FEBUXOSTAT]

Settings: human gut metagenome, 24 h, 2 µM
Remark: another data set of the same source

Bacterial Biotransformation | Structure (SMILES)
Compound metabolized | CCc1nn(CCCN2CCN(c3cccc(Cl)c3)CC2)c(=O)n1CCOc1ccccc1 [NEFAZODONE]
Compound metabolized | Cc1nc(-c2ccc(OCC(C)C)c(C#N)c2)sc1C(=O)O [FEBUXOSTAT]

Settings: human gut metagenome, 24 h, 2 µM
Remark: another data set of the same source

Bacterial Biotransformation | Structure (SMILES)
Compound metabolized | CCc1nn(CCCN2CCN(c3cccc(Cl)c3)CC2)c(=O)n1CCOc1ccccc1 [NEFAZODONE]
Compound metabolized | Cc1nc(-c2ccc(OCC(C)C)c(C#N)c2)sc1C(=O)O [FEBUXOSTAT]

Settings: human gut metagenome, 24 h, 2 µM
Remark: another data set of the same source

Bacterial Biotransformation | Structure (SMILES)
Compound metabolized | CCc1nn(CCCN2CCN(c3cccc(Cl)c3)CC2)c(=O)n1CCOc1ccccc1 [NEFAZODONE]
Compound metabolized | Cc1nc(-c2ccc(OCC(C)C)c(C#N)c2)sc1C(=O)O [FEBUXOSTAT]

Settings: human gut metagenome, 24 h, 2 µM
Remark: another data set of the same source

Bacterial Biotransformation | Structure (SMILES)
Compound metabolized | CCc1nn(CCCN2CCN(c3cccc(Cl)c3)CC2)c(=O)n1CCOc1ccccc1 [NEFAZODONE]
Compound metabolized | Cc1nc(-c2ccc(OCC(C)C)c(C#N)c2)sc1C(=O)O [FEBUXOSTAT]
